According to paper PMC8989696, “Characterization of furathiocarb metabolism in in-vitro human liver microsomes and recombinant cytochrome P450 enzymes” (Toxicology Reports, 2022):
pIC50: −log10 of the molar value. Where two headings read alike, the source gives them in different places.

Columns and labels:
[1] = Furathiocarb biotransformation kinetics in individual human hepatic microsomes (10 donors); format: in vitro ADME; conditions: for Variation between the highest and lowest formation rate / Metabolite formation rate (lowest to highest of 10 donors): at 300 µM furathiocarb; for Variation between the highest and lowest formation rate: 10 donors; for Metabolite formation rate (lowest to highest of 10 donors): individual human hepatic microsomes
Protocol: The incubation mixture (ﬁnal volume of 200 µl of 0.1 M phosphate buffer) contained 50 and 100 µM furathiocarb, 0.15 mg pooled liver microsomal protein (n = 10), and 1 mM NADPH. The reaction was initiated by NADPH after a 2 min pre-incubation at + 37 °C and was incubated for 30 min at + 37 °C. The reaction stopped with ice-cold acetonitrile containing an internal standard.
Enzyme kinetic parameters of both the microsomal samples and rCYP enzymes were measured. The incubation mixture contained furathiocarb (2.5, 10, 25, 50, 150 and 300 µM). Incubation times were 20 and 30 min for microsomal samples and rCYPs, respectively. Otherwise incubation mixtures and methods were the same as in metabolite identification. The rate of sum of furathiocarb metabolite formation was linear at least up to 0.15 mg protein/ml and 30 min incubation time in the standard experimental conditions.
The standard incubation mixture contained 50 and 100 µM furathiocarb, 0.15 mg pooled liver microsomal protein (n = 10), and 1 mM NADPH in a ﬁnal volume of 200 µl of 0.1 M phosphate buffer (pH 7.4). Furathiocarb was prepared once a week in dimethylsulfoxide (DMSO; ﬁnal amount in the reaction medium 1.0%). After a 2-min incubation at +37 ◦C in a shaking incubator block, the reaction was started by adding NADPH. The mixture was incubated at +37 ◦C for 30 min and the reaction was stopped with 600 µl of ice-cold acetonitrile containing an internal standard. All incubations were carried out in triplicate.

2C19 = conditions: read-out: IC50, 2C19; range given jointly for CYP2C9, 2C19 and CYP2D6; no reference given; cited from earlier work
CYP2D6 = conditions: cited from earlier work
CYP2C9 = conditions: read-out: IC50, CYP2C9; range given jointly for CYP2C9, 2C19 and CYP2D6; no reference given; cited from earlier work
CYP3A4 [2] = conditions: cited from earlier work
[3] = 54; cited from earlier work
2B6 = conditions: read-out: IC50, CYP 2B6; cited from earlier work
CYPs 1A1/2 = conditions: read-out: IC50, CYP 1A1/2; cited from earlier work
CYP3A4 [4] = assay: in vitro; conditions: ketoconazole 100 µM, pooled human hepatic microsomes
Protocol: Formation rates of metabolites were determined in the presence or absence of ketoconazole 100 µM.
Each point represents the mean ± S.D of three separate determinations.

[5] = read-out: IC50, CYP3A4 (MDZ-OH)

Q: For CC1(C)Oc2c(O)cccc2C1O (stereo not drawn) [3-hydroxy-7-phenolcarbofuran], which “Variation between the highest and lowest formation rate” value [1] is on record?
A: 23 fold

Q: And the “Metabolite formation rate (lowest to highest of 10 donors)” value (“Metabolite formation rate” for short) [1]?
A: 0.02–0.52 nmol/(mg protein min)

Q: With CCCCN(CCCC)SN(C)C(=O)Oc1cccc2c1OC(C)(C)C2 [Carbosulfan] as the compound, how does the pIC50 (2C19) read?
A: 4.60 to 4.80

Q: And the pIC50 (CYP2D6; read-out: IC50, CYP2D6, range given jointly for CYP2C9, 2C19 and CYP2D6, no reference given)?
A: 4.60 to 4.80

Q: What about the pIC50 (CYP2C9) of the same compound?
A: 4.60 to 4.80

Q: What about the pIC50 (CYP3A4 [2]; [5]) of the same compound?
A: 4.95

Q: Which “Variation between the highest and lowest formation rate” value [1] does the source give for CNC(=O)Oc1cccc2c1OC(C)(C)C2O (stereo not drawn) [3-hydroxycarbofuran] here?
A: 10 fold

Q: And the “Metabolite formation rate” value [1]?
A: 0.68 to 6.83 nmol/(mg protein min)

Q: Which “Toxic class, WHO classification of pesticides by hazard” value [3] does the source give for CNC(=O)Oc1cccc2c1OC(C)(C)C2 [Carbofuran, carbofuran] here?
A: 1b

Q: With CCOP(=S)(OCC)Oc1nc(Cl)c(Cl)cc1Cl [Chlorpyrifos] as the compound, how does the pIC50 (2B6) read?
A: 5.60

Q: What about the pIC50 (CYPs 1A1/2) of the same compound?
A: 5.54

Q: What about the pIC50 (CYP2D6; read-out: IC50, CYP 2D6) of the same compound?
A: 5.48

Q: What about the pIC50 (CYP3A4 [2]; read-out: IC50, CYP 3A4) of the same compound?
A: 5.40

Q: Which “Variation between the highest and lowest formation rate” value [1] does the source give for CNC(=O)Oc1cccc2c1OC(C)(C)C2=O [3-ketocarbofuran] here?
A: 54.4 fold

Q: And the “Metabolite formation rate” value [1]?
A: 0.28–15.6 nmol/(mg protein min)

Q: For CC1(C)Cc2cccc(O)c2O1 [7-phenolcarbofuran], which “Variation between the highest and lowest formation rate” value [1] is on record?
A: 2 fold

Q: And the “Metabolite formation rate” value [1]?
A: 4.5–8.3 nmol/(mg protein min)

Q: For CC1(C)Oc2c(O)cccc2C1=O [3-keto-7-phenolcarbofuran], which “Metabolite amounts formed in HLM31” value ([1]; HLM31, all furathiocarb concentrations used) is on record?
A: below the limits of quantiﬁcation

Q: For CC(=O)N1CCN(c2ccc(OCC3COC(Cn4ccnc4)(c4ccc(Cl)cc4Cl)O3)cc2)CC1 (stereo not drawn) [Ketoconazole], which inhibition at 20 min, 100 µM (CYP3A4 [4]; human, microsomes, Inhibition of carbofuran metabolic pathway formation, various furathiocarb concentrations) is on record?
A: 32 to 86%

Q: What about the “Effect on the formation of metabolite A” value (CYP3A4 [4]) of the same compound?
A: no effects

Q: With CCOC(=O)CCN(SN(C)C(=O)Oc1cccc2c1OC(C)(C)C2)C(C)C [benfuracarb] as the compound, how does the pIC50 (CYP3A4 [2]; [5]) read?
A: 4.83
